Assay results as given in ChEMBL document CHEMBL2029230, “Identification, design and biological evaluation of heterocyclic quinolones targeting Plasmodium falciparum type II NADH:quinone oxidoreductase (PfNDH2)” (J Med Chem, 2012).

Legend:
[1] = test system: Plasmodium falciparum; experiment: Antimalarial activity against blood stage forms of Plasmodium falciparum 3D7 infected in human erythrocytes; format: functional, organism-based
[2] = Inhibition of Plasmodium falciparum recombinant NDH2 expressed in Escherichia coli F571 using decyclubiquinone as substrate at 1 min by spectrophotometry
[3] = test system: Plasmodium falciparum; experiment: Antimalarial activity against […]-resistant Plasmodium falciparum TM90C2B containing cytochrome-b Y268S mutant; format: functional, organism-based
[4] = test system: Plasmodium falciparum; experiment: Antimalarial activity against chloroquine-resistant Plasmodium falciparum W2; format: functional, organism-based
[5] = Inhibition of Plasmodium falciparum cytochrome b-c1 complex using decylubiquinol as substrate by spectrophotometry
[6] = test system: Plasmodium berghei; experiment: Antimalarial activity against Plasmodium berghei NS infected in po dosed CD1 mouse assessed as decrease in parasitemia measured on day 4; format: functional; conditions: 96 h
[7] = Cmax in rat at 20 mg/kg, po; format: ADME, organism-based; parameters: dose 20 mg/kg, route oral; conditions: in vivo
[8] = Half life in rat at 20 mg/kg, po; format: ADME, organism-based; parameters: dose 20 mg/kg, route oral; conditions: in vivo
[9] = test system: Rattus norvegicus; experiment: Volume of distribution in rat at 20 mg/kg, po; format: ADME, organism-based; parameters: dose 20 mg/kg, route oral; conditions: in vivo
[10] = Tmax in rat at 20 mg/kg, po; format: ADME, organism-based; parameters: dose 20 mg/kg, route oral; conditions: in vivo
[11] = Total clearance in rat at 20 mg/kg, po; format: ADME, organism-based; parameters: dose 20 mg/kg, route oral; conditions: in vivo
[12] = AUC (0 to t) in rat at 20 mg/kg, po; format: ADME, organism-based; parameters: dose 20 mg/kg, route oral; conditions: plasma
[13] = test system: Plasmodium berghei; experiment: Antimalarial activity against Plasmodium berghei NS infected in CD1 mouse assessed as decrease in parasitemia at 20 mg/kg, po administered using SSV as vehicle measured on day 4; format: functional; parameters: scale not given: the % may be the effect or the level left
[14] = test system: Plasmodium berghei; experiment: Antimalarial activity against Plasmodium berghei NS infected in CD1 mouse assessed as decrease in parasitemia at 20 mg/kg, po administered using DET as vehicle measured on day 4; format: functional; parameters: scale not given: the % may be the effect or the level left

SMILES | IC50 [1] [nM] | further results
Cc1c(-c2ccc(-c3ccc(OCCN4CCOCC4)cc3)nc2)[nH]c2ccccc2c1=O | > 1000 | 
Cc1c(-c2c(F)cc(-c3ccc(OC(F)(F)F)cc3)cc2F)[nH]c2ccccc2c1=O | 940 | 
Cc1c(-c2ccc(-c3ccccc3C(F)(F)F)cc2)[nH]c2ccccc2c1=O | 96 | IC50 [2]: 8.1 nM
Cc1c(-c2ccc(-c3ccc(F)cc3F)cc2)[nH]c2ccccc2c1=O | 213 | 
Cc1c(-c2ccc(-c3ccccc3F)cc2)[nH]c2ccccc2c1=O | 471 | 
CCOC(=O)c1c(-c2ccc(-c3ccc(OC(F)(F)F)cc3)cc2)[nH]c2ccccc2c1=O | 347 | 
CCOC(=O)c1c(-c2ccc(-c3ccc(Cl)cc3)cc2)[nH]c2ccccc2c1=O | 220 | IC50 [3]: 1150 nM
O=c1c(CO)c(-c2ccc(-c3ccc(OC(F)(F)F)cc3)cc2)[nH]c2ccccc12 | 162 | IC50 [2]: 69 nM; IC50 [3]: 361 nM
COc1cccc2[nH]c(-c3ccc(-c4ccc(OC(F)(F)F)cc4)nc3)c(C)c(=O)c12 | > 1000 | 
Cc1c(-c2ccc(-c3ccc(OC(F)(F)F)cc3)nc2)[nH]c2ccc(Cl)cc2c1=O | 298 | IC50 [3]: 410 nM
COc1ccc2[nH]c(-c3ccc(-c4ccc(OC(F)(F)F)cc4)nc3)c(C)c(=O)c2c1 | > 1000 | 
Cc1c(-c2ccc(-c3ccc(OC(F)(F)F)cc3)nc2)[nH]c2ccc(OC(F)(F)F)cc2c1=O | > 1000 | 
Cc1c(-c2ccc(-c3ccc(OC(F)(F)F)cc3)nc2)[nH]c2ccc(C(F)(F)F)cc2c1=O | > 1000 | 
Cc1c(-c2ccc(-c3ccc(OC(F)(F)F)cc3)nc2)[nH]c2cc(F)ccc2c1=O | 75 | IC50 [2]: 4.2 nM; IC50 [4]: 70 nM; IC50 [5]: 26.8 nM
Cc1c(-c2ccc(-c3ccc(OC(F)(F)F)cc3)nc2)[nH]c2cc(Cl)ccc2c1=O | 373 | 
Cc1c(-c2ccc(-c3ccc(OC(F)(F)F)cc3)nc2)[nH]c2cc(C(F)(F)F)ccc2c1=O | > 1000 | 
Cc1c(-c2ccc(-c3ccc(OC(F)(F)F)cc3)nc2)[nH]c2cc(S(C)(=O)=O)ccc2c1=O | > 1000 | 
COc1cccc2c(=O)c(C)c(-c3ccc(-c4ccc(OC(F)(F)F)cc4)nc3)[nH]c12 | > 1000 | 
Cc1c(-c2ccc(-c3ccc(OC(F)(F)F)cc3)nc2)[nH]c2cc(F)cc(F)c2c1=O | 286 | IC50 [2]: 2.6 nM
Cc1c(-c2ccc(-c3ccc(OC(F)(F)F)cc3)nc2)[nH]c2cc(F)c(F)cc2c1=O | 344 | 
Cc1c(-c2ccc(-c3ccc(OC(F)(F)F)cc3)nc2)[nH]c2cc(F)c(Cl)cc2c1=O | 390 | 
Cc1c(-c2ccc(-c3ccc(OC(F)(F)F)cc3)nc2)[nH]c2cc(Cl)c(F)cc2c1=O | 390 | 

SMILES | IC50 [1] [nM] | further results
Cc1c(-c2ccc(-c3ccc(C(F)(F)F)cc3)nc2)[nH]c2ccccc2c1=O | 102 | IC50 [2]: 13.9 nM; IC50 [3]: 314 nM
Cc1c(-c2ccc(-c3ccc(F)cc3F)nc2)[nH]c2ccccc2c1=O | 219 | IC50 [2]: 88.6 nM
COc1cccc(-c2ccc(-c3[nH]c4ccccc4c(=O)c3C)cn2)c1 | 556 | 
Cc1c(-c2ccc(-c3ccc(OC(F)(F)F)cc3)nc2)[nH]c2ccc(O)cc2c1=O | 280 | 
Cc1c(-c2ccc(-c3ccc(OC(F)(F)F)cc3)nc2)[nH]c2cc(O)ccc2c1=O | 202 | 
Cc1c(-c2ccc(-c3ccc(OC(F)(F)F)cc3)nc2)[nH]c2c(O)cccc2c1=O | > 1000 | 
Cc1c(-c2ccc(-c3cccc(O)c3)nc2)[nH]c2ccccc2c1=O | > 1000 | 
Cc1c(-c2ccc(-c3ccc(O)cc3)nc2)[nH]c2ccccc2c1=O | > 1000 | 
Cc1c(-c2ccc(-c3ccccc3C(F)(F)F)nc2)[nH]c2ccccc2c1=O | 109 | IC50 [2]: 352 nM; IC50 [4]: 88 nM; IC50 [3]: 381 nM
Cc1c(-c2ccc(-c3ccccc3F)nc2)[nH]c2ccccc2c1=O | 151 | IC50 [2]: 131 nM; IC50 [4]: 120 nM; IC50 [3]: 324 nM
CCOC(=O)c1c(-c2ccc(-c3ccc(OC(F)(F)F)cc3)nc2)[nH]c2ccccc2c1=O | 987 | 
O=c1c(CO)c(-c2ccc(-c3ccc(OC(F)(F)F)cc3)nc2)[nH]c2ccccc12 | 103 | IC50 [2]: 407 nM
COc1c(-c2ccc(-c3ccc(OC(F)(F)F)cc3)nc2)[nH]c2ccccc2c1=O | 93 | 
Cc1c(-c2ccc(-c3ccc(C(F)(F)F)nc3)nc2)[nH]c2ccccc2c1=O | 370 | IC50 [4]: 329 nM
Cc1c(-c2ccc(Oc3ccc(OC(F)(F)F)cc3)nc2)[nH]c2ccccc2c1=O | 40 | IC50 [2]: 110 nM; IC50 [4]: 50 nM
Cc1c(-c2ccc(Oc3ccc(F)cc3)nc2)[nH]c2ccccc2c1=O | 279 | IC50 [2]: 588 nM
Cc1c(-c2ccc(Cc3ccc(C(F)(F)F)nc3)cc2F)[nH]c2ccccc2c1=O | 136 | IC50 [4]: 67 nM
Cc1c(-c2ccc(OC3CCC(F)(F)CC3)cc2)[nH]c2ccccc2c1=O | 319 | 
Cc1c(-c2ccc(OC3CCOCC3)cc2)[nH]c2ccccc2c1=O | > 1000 | 
Cc1c(-c2ccc(CN3CCOCC3)cc2)[nH]c2cc(Cl)ccc2c1=O | > 1000 | 
Cc1c(-c2ccc(CN3CCOCC3)cc2)[nH]c2ccccc2c1=O | 32 | IC50 [4]: 3070 nM
Cc1c(-c2ccc(OC3CCOCC3)cc2)[nH]c2ncccc2c1=O | > 1000 | 

SMILES | IC50 [1] [nM] | further results
Cc1c(-c2ccc(-c3ccc(CN4CCOCC4)cc3)cc2)[nH]c2ccccc2c1=O | 496 | 
Cc1c(-c2ccc(-c3ccc(CN4CCOCC4)cc3)nc2)[nH]c2ccccc2c1=O | > 1000 | 
Cc1c(-c2ccc(OCCN3CCOCC3)cc2)[nH]c2ccccc2c1=O | > 1000 | 
Cc1c(-c2ccc(OCCN3CCOCC3)cc2)[nH]c2ccc(Cl)cc2c1=O | > 1000 | 
Cc1c(-c2ccc(OCCN3CCOCC3)cc2)[nH]c2cc(Cl)ccc2c1=O | > 1000 | 
Cc1c(-c2ccc(OCCN3CCCCC3)cc2)[nH]c2ccccc2c1=O | > 1000 | 
Cc1c(-c2ccc(OCCN3CCCC3)cc2)[nH]c2ccccc2c1=O | > 1000 | 
Cc1c(-c2ccc(OCCN3CCN(C)CC3)cc2)[nH]c2ccccc2c1=O | > 1000 | 
Cc1c(-c2ccc(OCCn3ccnc3)cc2)[nH]c2ccccc2c1=O | > 1000 | 
Cc1c(-c2ccc(-c3cnn(CCN4CCOCC4)c3)cc2)[nH]c2ccccc2c1=O | > 1000 | 
Cc1c(-c2ccc(-c3cnn(CCN4CCCCC4)c3)cc2)[nH]c2ccccc2c1=O | > 1000 | 
Cc1c(-c2ccc(-c3cccc(OCCN4CCOCC4)c3)nc2)[nH]c2ccccc2c1=O | > 1000 | 
Cc1c(-c2ccc(-c3cccc(OCCN4CCCCC4)c3)nc2)[nH]c2ccccc2c1=O | > 1000 | 
Cc1c(-c2ccc(-c3ccc(OCCN4CCCCC4)cc3)nc2)[nH]c2ccccc2c1=O | 600 | 
Cc1c(-c2ccc(CN3CCN(Cc4ccc(OC(F)(F)F)cc4)CC3)nc2)[nH]c2ccccc2c1=O | 679 | 
Cc1c(-c2ccc(-c3ccc(OC(F)(F)F)cc3)nc2)[nH]c2ccccc2c1=O.O=P(O)(O)O |  | ED50 [6]: 1.87 mg/kg; ED90 [6]: 4.72 mg/kg
Cc1c(-c2ccc(-c3ccc(OC(F)(F)F)cc3)nc2)nc2ccccc2c1OC(=O)N1CCOCC1 |  | Cmax [7]: 8100 ng/mL; half-life [8]: 20.3 h; Vd [9]: 2.8756 L/kg; Tmax [10]: 7 h; CL/F [11]: 1.63 mL/min/kg; AUC(0-t) [12]: 167 µg·h/mL; Activity [13]: 100%
CO[C@H]1O[C@@H]2O[C@@]3(C)CC[C@H]4[C@H](C)CC[C@@H]([C@H]1C)[C@@]24OO3 |  | ED50 [6]: 3.1 mg/kg; ED90 [6]: 5.8 mg/kg
O=C1C(O)=C([C@H]2CC[C@H](c3ccc(Cl)cc3)CC2)C(=O)c2ccccc21 [ATOVAQUONE] |  | ED50 [6]: 0.07 mg/kg; ED90 [6]: 0.11 mg/kg; Activity [14]: 100%; IC50 [3]: 12000 nM; Activity [13]: 100%
CCN(CC)CCCC(C)Nc1ccnc2cc(Cl)ccc12 (configuration not stated) [CHLOROQUINE] |  | ED50 [6]: 3.3 mg/kg; ED90 [6]: 4.6 mg/kg
